Converted amounts (≈) assume the structure as drawn.
Assays:
Type in all cases: cell-based
Candida albicans = assay: MIC for yeast (sabouraud dextrose agar); settings: 168 h, 25 C., 7 days, read-out: MIC for molds and yeast
Method: (§1) In order to assay the effectiveness of the compounds of the present invention, the MIC(minimum inhibitory concentration) on bacteria, yeast and fungi were determined.
(§2) For the evaluation of fungistatic activity, each compound was serially diluted in test tubes to give the desired concentration when mixed with 20 ml of steriled molten sabouraud dextrose agar, and poured into sterile petri dishes.
(§3) After the medium was solidified, the spore-suspension of the each test organisms were inoculated by streaking and incubated at 25 C. for 7 days.
(§4) The minimum concentration of the compound effective for inhibiting the growth is determined by examining the growth of the each organism.
(§5) In the above mentioned method the MIC for yeast and molds of the compounds A,B,C,D and E were obtained and can be seen from the table 2.

Tricoderma virid = assay: MIC for molds (sabouraud dextrose agar); settings: 168 h, 25 C., 7 days, read-out: MIC for molds and yeast
Method: as §1, §2, §3, §4, §5

Fusarium solani = assay: MIC for molds (sabouraud dextrose agar); settings: 168 h, 25 C., 7 days, read-out: MIC for molds and yeast
Method: as §1, §2, §3, §4, §5

Aspergillus niger = assay: MIC for molds (sabouraud dextrose agar); settings: 168 h, 25 C., 7 days, read-out: MIC for molds and yeast
Method: as §1, §2, §3, §4, §5

Aspergillus flavus = assay: MIC for molds (sabouraud dextrose agar); settings: 168 h, 25 C., 7 days, read-out: MIC for molds and yeast
Method: as §1, §2, §3, §4, §5

Escherichia coli = assay: MIC against bacteria (serial dilution in nutrient broth); settings: 37 C., 48 hrs
Method: as §1
(§6) Minimum inhibitory concentrations were determined according to following procedure.
(§7) For the bacteriostatic activity, the said invention compounds were serially diluted with 10 ml of sterile nutrient broth. Each tube was inoculated with 1 drop of an aqueous suspension of the various test organisms containing approximately 1×10^6 organisms/ml and incubated at 37 C. for 48 hrs. After incubation, the IMC of the said invention compounds were determined as the lowest concentration of compound in which no microscopic evidence of growth was observed. The compounds and the MIC value against bacteria of the compounds can be seen from the following table 1.

Staphylococcus aureus = assay: as above; settings: 37 C., 48 hrs
Method: as §1, §6, §7

Pseudomonas aeruginosa = assay: as above; settings: 37 C., 48 hrs
Method: as §1, §6, §7

Bacillus subtilis = assay: as above; settings: 37 C., 48 hrs
Method: as §1, §6, §7

[1] = test system: micro-organisms, including bacteria, yeast and molds; assay: antimicrobial activity, bacteria, yeast and molds; settings: comparison of table 2 with table 1
Method: as §1, §6, §7, §2, §3, §4

bacteria = assay: MIC against bacteria, summary over the test bacteria; settings: for MIC: 48 h, four bacteria of table 1, read-out: MIC value (range over the test bacteria)
Method: as §1, §6, §7

molds and yeast = assay: fungistatic activity, summary over molds and yeast; settings: from table 2
Method: as §1, §2, §3, §4, §5

SMILES | MIC (Candida albicans) [µg/mL] | MIC (Tricoderma virid) [µg/mL] | MIC (Fusarium solani) [µg/mL] | MIC (Aspergillus niger) [µg/mL] | MIC (Aspergillus flavus) [µg/mL] | MIC (Escherichia coli) [µg/mL] | MIC (Staphylococcus aureus) [µg/mL] | MIC (Pseudomonas aeruginosa) [µg/mL] | MIC (Bacillus subtilis) [µg/mL] | activity against bacteria compared with fungi and yeast [1] | MIC (bacteria) [µg/mL] | strength relative to compound C and D (times as strong) (bacteria; from MIC values of table 1) | fungistatic activity compared with the compounds C and D (molds and yeast)
O=C1NC(c2ccc(O)cc2)C(=O)N1CO (centres unmarked) [A, 5-(4-hydroxyphenyl)-3-hydroxymethylhydantoin] | 4000 (≈ 18 mM) | 1000 (≈ 4.5 mM) | 1500 (≈ 6.75 mM) | 2000 (≈ 9 mM) | 3000 (≈ 13.5 mM) | 100 (≈ 0.45 mM) | 200 (≈ 0.9 mM) | 200 (≈ 0.9 mM) | 300 (≈ 1.35 mM) | by far stronger activities against bacteria than fungi and yeast | 100 to 300 (≈ 0.45 to 1.35 mM) | about 10 times | stronger fungistatic activities than the compounds C and D
O=C1C(c2ccc(O)cc2)N(CO)C(=O)N1CO (centres unmarked) [B, 5-(4-hydroxyphenyl)-1,3-bis (hydroxymethyl)hydantoin] | 2000 (≈ 7.93 mM) | 1000 (≈ 3.96 mM) | 1000 (≈ 3.96 mM) | 1000 (≈ 3.96 mM) | 2000 (≈ 7.93 mM) | 100 (≈ 0.396 mM) | 100 (≈ 0.396 mM) | 100 (≈ 0.396 mM) | 200 (≈ 0.793 mM) | by far stronger activities against bacteria than fungi and yeast | 100 to 200 (≈ 0.396 to 0.793 mM) | – | stronger fungistatic activities than the compounds C and D
CC(O)N1C(=O)C(c2ccc(O)cc2)N(C(C)O)C1=O (centres unmarked) [C, 5-(4-hydroxyphenyl)-1,3-bis (1-hydroxyethyl)hydantoin] | 5000 (≈ 17.8 mM) | 3000 (≈ 10.7 mM) | 3000 (≈ 10.7 mM) | 4000 (≈ 14.3 mM) | 5000 (≈ 17.8 mM) | 700 (≈ 2.5 mM) | 700 (≈ 2.5 mM) | 1200 (≈ 4.28 mM) | 1000 (≈ 3.57 mM) | by far stronger activities against bacteria than fungi and yeast | 700 to 1500 (≈ 2.5 to 5.35 mM) | – | –
CCC(O)N1C(=O)C(c2ccc(O)cc2)N(C(O)CC)C1=O (centres unmarked) [D, 5-(4-hydroxyphenyl)-1,3-bis (1-hydroxypropyl)hydantoin] | 5000 (≈ 16.2 mM) | 2000 (≈ 6.49 mM) | 3000 (≈ 9.73 mM) | 3000 (≈ 9.73 mM) | 5000 (≈ 16.2 mM) | 900 (≈ 2.92 mM) | 1000 (≈ 3.24 mM) | 1500 (≈ 4.86 mM) | 1200 (≈ 3.89 mM) | by far stronger activities against bacteria than fungi and yeast | 700 to 1500 (≈ 2.27 to 4.86 mM) | – | –
O=C1NC(c2ccc(O)c(Cl)c2)C(=O)N1CO (centres unmarked) [E, 5-(3-Chloro-4-hydroxyphenyl)-3-hydroxymethylhydantoin] | 2000 (≈ 7.79 mM) | 1000 (≈ 3.9 mM) | 1000 (≈ 3.9 mM) | 2000 (≈ 7.79 mM) | 2000 (≈ 7.79 mM) | 100 (≈ 0.39 mM) | 100 (≈ 0.39 mM) | 100 (≈ 0.39 mM) | 500 (≈ 1.95 mM) | by far stronger activities against bacteria than fungi and yeast | 100 to 500 (≈ 0.39 to 1.95 mM) | – | stronger fungistatic activities than the compounds C and D
